Assay results taken from US8709420B2 (GlaxoSmithKline Intellectual Property Limited, priority 2010, dated 2014).
Converted amounts (≈) assume the structure as drawn. “And” between values parts separate entries of the source, which are not always exact repeats. Identical values can stand only once.

Columns and labels:
[1] = test system: Rh4 rhabdomyosarcoma cell line; assay type: cell-based
Protocol: Materials: The cells were cultured at 37° C. in 5% CO2 in a-MEM (Multicell; Wisent, Inc., St. Bruno, Quebec, Canada) with 10% fetal bovine serum (FBS; Life Technologies, Grand Island, N.Y.) and 1% antibiotic mixture, containing 10000 IU penicillin and 10000 μg/ml streptomycin (Multicell; Wisent, Inc., St. Bruno, Quebec, Canada). Trypsin-EDTA, containing 0.05% trypsin and 0.53 mM EDTA was also purchased from Multicell; Wisent, Inc., St. Bruno, Quebec, Canada.
Procedure: A total of 20,000 cells were plated in each well of 48 well-plates and incubated at 37° C. in 5% CO2. After 48 h, the cells were treated with various concentrations of drugs. After 72 h of treatment, the cell viability was determined by alamar blue assay.

[2] = test system: circulating endothelial progenitor cells (CEPs); experiment: CEP/CEC flow cytometry in SK-N-BE(2) xenograft model; assay type: in vivo, mouse; settings: after one week treatment
Protocol: Approximately 160 μl of mouse blood was collected in K2-EDTA tubes by saphenous vein puncture from animals of the SK-N-BE(2) xenograft model (after one week treatment) and BE(2)-c metastatic model (after one week and four weeks treatment). Blood was immediately stored at 4° C. until analysis. The CEP/CECs were measured by flow cytometry within 48 hrs of blood collection as previously described. CEPs were defined as CD45−, VEGFR-2+, CD117+, and CD13+, while CECs were defined as CD45−, VEGFR-2+, CD117−, and CD13+. The absolute number of CEPs was calculated as the percentage of events collected in CEP enumeration gates multiplied by the total white blood cell (WBC) count.

[3] = previously reported; cited from earlier work
HIF-1 alpha = experiment: Immunohistochemistry of xenograft tumors, HIF-1 alpha; assay type: in vivo, NOD/SCID mice; settings: NB12 xenograft model
Protocol: Formalin fixed tissues were paraffin embedded and sections cut at 7 um. […] The primary antibodies were anti-HIF-1 alpha (#NB100-131, Novus Biologicals, dilution 1:3000), HIF-2 alpha (#NB100-122, Novus Biologicals, dilution 1:100), Oct-4 (#2890S, Cell Signalling, dilution 1:100), von Willebrand factor (#A0082; DakoCytomation, Glostrup, Denmark). After the primary antibody treatment, all the slides were washed three times with PBS and incubated with broad spectrum poly-horse radish peroxidase (HRP) conjugate […] secondary antibody (87-9663, Invitrogen) for 1 h at room temperature. After washing three times with PBS, slides were stained with diaminobenzidine (DAB) and counterstained with hematoxylin. Microscopic images of six fields of high vascular density were digitally captured for vWF-stained slides, while for HIF-1 alpha, HIF-2 alpha and Oct-4 stained slides, the images of six randomly selected areas were captured. The pixel values for stained areas were quantified using ImageJ software. Tumor angiogenesis was quantified as the number of pixels of regions positive for vWF.

[4] = test system: circulating endothelial cells (CECs), CEPs, WBC; experiment: Viable CECs, CEPs and WBC in KHOS osteosarcoma model; assay type: in vivo, NOD/SCID mice; settings: 21 days treatment
Protocol: Procedure: Approximately 160 μl of blood was sampled in heparinized microtubes at 21st day of treatment by saphenous vein puncturing. These blood samples were stored at 4° C. until analysis. CEC/CEP measurement was done within 48 h of blood collection by flow cytometry.

KHOS xenograft = experiment: KHOS osteosarcoma mouse xenograft model; assay type: in vivo, NOD/SCID mice
[5] = test system: BE(2)-c experimental metastases; experiment: BE(2)-c metastatic tumor model; assay type: in vivo, NOD/SCID mice
Procedure: 1×10^6 BE(2)-c cells were injected into lateral tail veins of NOD/SCID mice to generate ‘experimental’ metastases. […] The treatment was continued until death or end point.
In the metastatic model, the animals' organs (liver, kidney, adrenal, and femur) were removed after the death/sacrifice of animals, and were fixed in 10% formalin and paraffin-embedded. These paraffin-embedded sections were then stained with hematoxylin and eosin and microscopically examined.

[6] = test system: NB88 tumor initiating cell line; experiment: In-vitro cytotoxicity, Alamar Blue cell viability; assay type: cell-based; settings: topotecan alone, 72 h
Text: (§1) SK-N-BE(2) (MYCN amplified) and SH-SY5Y (non-MYCN amplified neuroblastoma cell lines) were obtained from American Type Culture Collection (ATCC) (Manassas, Va.); BE(2)-c sub-clone of SK-N-BE(2) was obtained from Dr. Michelle Haber (Children's Cancer Institute for Medical Research, Lowry Cancer Research Centre, Randwick, Australia); Human Umbilical Vein Endothelial Cells (HUVECs) were obtained from Dr. Herman Yeger (The Hospital for Sick Children, Toronto, Ontario, Canada) and Tumor Initiating (TIC) cell lines NB12 and NB88, were obtained from Dr. David Kaplan (The Hospital for Sick Children, Toronto, Ontario, Canada). TICs NB12 and NB88 were isolated from the bone marrow metastases of relapsed high-risk neuroblastoma patients. Neuroblastoma cell lines SK-N-BE(2) and SH-SY5Y were grown in alpha-MEM containing 10% fetal bovine serum and 1% antibiotic mixture in humidified atmosphere at 37° C. with 5% CO2. NB12 and NB 88 were cultured as described previously.
(§2) Cell viability was determined by Alamar Blue assay. Alamar blue (10% of total volume was added to each well three hours prior to fluorometric detection). Fluorometric detection was performed using the SPECTRAmax gemini Spectrophotometer at excitation wavelength of 540 nm and emission wavelength of 590 nm.

[7] = test system: NB12 tumor initiating cell line; experiment: In-vitro cytotoxicity, Alamar Blue cell viability; assay type: cell-based; settings: topotecan alone, 72 h
Text: as §1, §2

[8] = test system: BE(2)-c neuroblastoma cell line; experiment: In-vitro cytotoxicity, Alamar Blue cell viability; assay type: cell-based; settings: Homo sapiens, topotecan alone, 72 h
Text: as §1, §2

[9] = test system: KHOS xenograft tumor microvasculature; experiment: Microvessel density by von Willebrand factor staining of KHOS xenografts; assay type: in vivo, NOD/SCID mice; settings: after 28 days treatment
Protocol: Procedure: Formalin fixed tissues were paraffin embedded and sections cut at 7 um. […] The primary antibody was von Willebrand factor (#A0082; DakoCytomation, Glostrup, Denmark). After the primary antibody treatment, the slides were washed three times with PBS and incubated with broad spectrum poly-horse radish peroxidase (HRP) conjugate secondary antibody (87-9663, Invitrogen) for 1 h at room temperature. After washing three times with PBS, slides were stained with diaminobenzidine (DAB) and counterstained with hematoxylin. Microscopic images of six fields of high vascular density were digitally captured. The pixel values for stained areas were quantified using ImageJ software. Tumor angiogenesis was quantified as the number of pixels of regions positive for von Willebrand Factor.

Cc1ccc(Nc2nccc(N(C)c3ccc4c(C)n(C)nc4c3)n2)cc1S(N)(=O)=O [pazopanib, 5-[[4-[(2,3-dimethyl-2H-indazol-6-yl)methylamino]-2-pyrimidinyl]amino]-2-methylbenzenesulfonamide]
cell viability / cytotoxicity [1]: did not show cytotoxicity
mean values of CEPs compared to control [2]: statistically significant difference
optimal plasma concentration of pazopanib effectiveness [3]: ≈ 18 μg/ml and 40 μM
HIF-1 alpha expression (HIF-1 alpha): increase

CC[C@@]1(O)C(=O)OCc2c1cc1n(c2=O)Cc2cc3c(CN(C)C)c(O)ccc3nc2-1 [topotecan]
CEP, significance versus Pulse [4]: * (* P < 0.05)
WBC, significance versus Pulse [4]: * (* P < 0.05)
White Blood Cell (WBC) levels compared to pulse TP [4]: significantly lower
viable CEP levels compared to pulse TP [4]: significantly lower
levels of viable CECs versus control ([4]; LDM TP 1.0 mg/kg, TP+PZ): significantly reduced
levels of viable CEPs versus control ([4]; LDM TP 1.0 mg/kg, TP+PZ): significantly reduced
levels of viable CECs versus control ([4]; Pulse TP 15 mg/Kg): significantly reduced
levels of viable CEPs versus control ([4]; Pulse TP 15 mg/Kg): significantly reduced
CEC, significance versus Control ([4]; Pulse topotecan 15 mg/Kg): * (* P < 0.05)
CEP, significance versus Control ([4]; Pulse topotecan 15 mg/Kg): * (* P < 0.05)
CEC, significance versus Control ([4]; TP (LDM 1.0 mg/kg), TP + PZ): ** (** P < 0.005)
CEP, significance versus Control ([4]; TP (LDM 1.0 mg/kg), TP + PZ): ** (** P < 0.005)
WBC, significance versus Control ([4]; TP (LDM 1.0 mg/kg), TP + PZ): * (* P < 0.05)
tumor growth rate (KHOS xenograft; 27 days daily oral, LDM topotecan 1.0 mg/kg, combination 1.0 mg/Kg topotecan and 150 mg/Kg pazopanib): delayed the tumor growth rate
tumor growth rate (KHOS xenograft; Pulse topotecan 15 mg/Kg, 27 days): delayed the tumor growth rate
tumor weights, Pulse versus LDM topotecan (KHOS xenograft; after 27 days treatment): No significant differences
survival span, TP versus PZ treated group ([5]; P<0.05): higher
histology of organs: tumors in liver and kidney ([5]; at time of death or end point): macroscopically detectable tumors in liver and kidney
mean survival span ([5]; daily oral gavage from 14 days after i.v. cell injection, TP 1.0 mg/Kg, TP+PZ plus 150 mg/Kg pazopanib): 52.4 days
IC50 [6]: 0.0039 µg/mL (≈ 0.00925 µM)
IC50 [7]: 0.0631 µg/mL (≈ 0.15 µM)
IC50 [8]: 0.0456 µg/mL (≈ 0.108 µM)
microvessel densities versus control ([9]; LDM TP, TP+PZ): significantly lower
microvessel densities versus control ([9]; Pulse TP): significantly lower
